Reference: ChEMBL document CHEMBL3046696, “QSAR analysis of caffeoyl naphthalene sulfonamide derivatives as HIV-1 integrase inhibitors” (Med Chem Res, 2006)

Assay: physchem
Settings: octanol/water
Description: Octanol-water partition coefficient, log P of the compound

Row | logP | SMILES
1 | 4.14 | O=C(/C=C/c1ccc(O)c(O)c1)Nc1cccc2c(S(=O)(=O)Nc3ccc(Br)cc3)cccc12
2 | 5.03 | Cc1cccc(NS(=O)(=O)c2cccc3c(NC(=O)/C=C/c4ccc(O)c(O)c4)cccc23)c1C
3 | 4.57 | O=C(/C=C/c1ccc(O)c(O)c1)Nc1cccc2c(S(=O)(=O)Nc3cccc([N+](=O)[O-])c3)cccc12
4 | 4.57 | O=C(/C=C/c1ccc(O)c(O)c1)Nc1cccc2c(S(=O)(=O)Nc3ccc(F)cc3)cccc12
5 | 4.46 | O=C(/C=C/c1ccc(O)c(O)c1)Nc1cccc2c(S(=O)(=O)Nc3ccccc3)cccc12
6 | 4.18 | CC(=O)Oc1ccc(/C=C/C(=O)Nc2cccc3c(S(=O)(=O)Nc4ccccc4C)cccc23)cc1OC(C)=O
7 | 4.24 | CC(=O)Oc1ccc(/C=C/C(=O)Nc2cccc3c(S(=O)(=O)Nc4cccc([N+](=O)[O-])c4)cccc23)cc1OC(C)=O
8 | 5.5 | CC(=O)Oc1ccc(/C=C/C(=O)Nc2cccc3c(S(=O)(=O)Nc4ccc(SC(F)(F)F)cc4)cccc23)cc1OC(C)=O
9 | 4.89 | O=C(/C=C/c1ccc(O)c(O)c1)Nc1cccc2c(S(=O)(=O)NCc3ccccc3)cccc12
10 | 3.15 | CCS(=O)(=O)c1ccc(NS(=O)(=O)c2cccc3c(NC(=O)/C=C/c4ccc(OC(C)=O)c(OC(C)=O)c4)cccc23)cc1
11 | 4.13 | Cc1ccc(NS(=O)(=O)c2cccc3c(NC(=O)/C=C/c4ccc(O)c(O)c4)cccc23)cc1
12 | 4.01 | CC(=O)Oc1ccc(/C=C/C(=O)Nc2cccc3c(S(=O)(=O)Nc4ccc(Cl)cc4)cccc23)cc1OC(C)=O
13 | 4.53 | CCc1ccc(NS(=O)(=O)c2cccc3c(NC(=O)/C=C/c4ccc(OC(C)=O)c(OC(C)=O)c4)cccc23)cc1
14 | 4.19 | CC(=O)Oc1ccc(/C=C/C(=O)Nc2cccc3c(S(=O)(=O)Nc4ccc(F)cc4)cccc23)cc1OC(C)=O
15 | 4.55 | CC(=O)Oc1ccc(/C=C/C(=O)Nc2cccc3c(S(=O)(=O)Nc4ccc(S(=O)(=O)C(F)(F)F)cc4)cccc23)cc1OC(C)=O
16 | 4.13 | O=C(/C=C/c1ccc(O)c(O)c1)Nc1cccc2c(S(=O)(=O)NCCc3ccccc3)cccc12
17 | 3.71 | O=C(/C=C/c1ccc(O)c(O)c1)Nc1cccc2c(S(=O)(=O)Nc3ccc(Cl)cc3)cccc12
18 | 3.8 | CC(=O)Oc1ccc(/C=C/C(=O)Nc2cccc3c(S(=O)(=O)Nc4ccc(C)cc4)cccc23)cc1OC(C)=O
19 | 4.6 | Cc1ccccc1NS(=O)(=O)c1cccc2c(NC(=O)/C=C/c3ccc(O)c(O)c3)cccc12
20 | 4.86 | CC(=O)Oc1ccc(/C=C/C(=O)Nc2cccc3c(S(=O)(=O)Nc4cccc(C(C)C)c4)cccc23)cc1OC(C)=O
21 | 4.55 | CC(=O)Oc1ccc(/C=C/C(=O)Nc2cccc3c(S(=O)(=O)Nc4ccc(C(F)(F)F)cc4)cccc23)cc1OC(C)=O
22 | 4.44 | CC(=O)Oc1ccc(/C=C/C(=O)Nc2cccc3c(S(=O)(=O)Nc4ccc(Br)cc4)cccc23)cc1OC(C)=O
23 | 4.86 | CC(=O)Oc1ccc(/C=C/C(=O)Nc2cccc3c(S(=O)(=O)Nc4ccc(C(C)C)cc4)cccc23)cc1OC(C)=O
24 | 4.53 | CCc1cccc(NS(=O)(=O)c2cccc3c(NC(=O)/C=C/c4ccc(OC(C)=O)c(OC(C)=O)c4)cccc23)c1
25 | 3.66 | CC(=O)Oc1ccc(/C=C/C(=O)Nc2cccc3c(S(=O)(=O)Nc4ccccc4)cccc23)cc1OC(C)=O

Second part, the compound before the results:

Row | SMILES | logP
26 | CC(=O)Oc1ccc(/C=C/C(=O)Nc2cccc3c(S(=O)(=O)NCCc4ccccc4)cccc23)cc1OC(C)=O | 3.76
27 | CC(=O)Oc1ccc(/C=C/C(=O)Nc2cccc3c(S(=O)(=O)Nc4ccccc4C(C)C)cccc23)cc1OC(C)=O | 4.86
28 | CCN(c1ccccc1)S(=O)(=O)c1cccc2c(N(C(=O)/C=C/c3ccc(OC(C)=O)c(OC(C)=O)c3)c3ccccc3)cc(C)cc12 | 6.65
29 | CC(=O)Oc1ccc(/C=C/C(=O)Nc2cccc3c(S(=O)(=O)Nc4ccccc4C(F)(F)F)cccc23)cc1OC(C)=O | 4.55
30 | CCS(=O)(=O)N(C(=O)/C=C/c1ccc(OC(C)=O)c(OC(C)=O)c1)c1cccc2c(S(=O)(=O)Nc3ccccc3)cccc12 | 3.92
31 | CC(=O)Oc1ccc(/C=C/C(=O)N(c2cccc3c(S(=O)(=O)Nc4cccc(C(F)(F)F)c4)cccc23)C(F)(F)F)cc1OC(C)=O | 6.54
32 | CCS(=O)(=O)c1cc(NC(=O)/C=C/c2ccc(OC(C)=O)c(OC(C)=O)c2)c2cccc(S(=O)(=O)Nc3ccccc3)c2c1 | 3.15
33 | CCc1ccc(N(C(=O)/C=C/c2ccc(OC(C)=O)c(OC(C)=O)c2)c2cc(C(F)(F)F)cc3c(S(=O)(=O)Nc4ccc(S(=O)(=O)CC)cc4)cccc23)cc1 | 7.34
34 | CCCc1ccccc1NS(=O)(=O)c1cccc2c(NC(=O)/C=C/c3ccc(OC(C)=O)c(OC(C)=O)c3)cccc12 | 4.92
35 | CCCCc1cc(NC(=O)/C=C/c2ccc(OC(C)=O)c(OC(C)=O)c2)c2cccc(S(=O)(=O)Nc3ccccc3)c2c1 | 5.32
36 | CCN(c1ccccc1)S(=O)(=O)c1cccc2c(N(C(=O)/C=C/c3ccc(OC(C)=O)c(OC(C)=O)c3)c3ccccc3)cccc12 | 6.18
37 | CC(=O)Oc1ccc(/C=C/C(=O)Nc2cccc3c(S(=O)(=O)NCc4ccccc4)cccc23)cc1OC(C)=O | 4.1
38 | CCCCN(c1ccc(F)cc1)S(=O)(=O)c1cccc2c(NC(=O)/C=C/c3ccc(OC(C)=O)c(OC(C)=O)c3)cccc12 | 5.12
39 | CC(=O)Oc1ccc(/C=C/C(=O)Nc2cccc3c(S(=O)(=O)Nc4cccc(C)c4C)cccc23)cc1OC(C)=O | 4.62
40 | CC(=O)Oc1ccc(/C=C/C(=O)N(SC(F)(F)F)c2cccc3c(S(=O)(=O)Nc4ccc(S(=O)(=O)C(F)(F)F)cc4)cccc23)cc1OC(C)=O | 7.16
41 | CC(=O)Oc1ccc(/C=C/C(=O)N(c2cccc3c(S(=O)(=O)Nc4ccc(SC(F)(F)F)cc4)cccc23)S(=O)(=O)C(F)(F)F)cc1OC(C)=O | 7.16
42 | CC(=O)Oc1ccc(/C=C/C(=O)N(c2cccc3c(S(=O)(=O)Nc4ccc(S(=O)(=O)C(F)(F)F)cc4)cccc23)C(F)(F)F)cc1OC(C)=O | 6.03
43 | CC(=O)Oc1ccc(/C=C/C(=O)N(c2cccc3c(S(=O)(=O)Nc4ccccc4)cccc23)C(F)(F)F)cc1OC(C)=O | 5.66
44 | CCc1ccccc1NS(=O)(=O)c1cccc2c(NC(=O)/C=C/c3ccc(OC(C)=O)c(OC(C)=O)c3)cccc12 | 4.53
45 | CC(=O)Oc1ccc(/C=C/C(=O)N(c2cccc3c(S(=O)(=O)Nc4ccc(C(F)(F)F)cc4)cccc23)C(F)(F)F)cc1OC(C)=O | 6.54
46 | CCS(=O)(=O)c1ccc(NS(=O)(=O)c2cccc3c(N(C(=O)/C=C/c4ccc(OC(C)=O)c(OC(C)=O)c4)S(=O)(=O)C(F)(F)F)cccc23)cc1 | 4.81
47 | CCCc1cccc(NS(=O)(=O)c2cccc3c(NC(=O)/C=C/c4ccc(OC(C)=O)c(OC(C)=O)c4)cccc23)c1 | 4.92
48 | CC(=O)Oc1ccc(/C=C/C(=O)N(c2ccccc2)c2cccc3c(S(=O)(=O)Nc4ccccc4)cccc23)cc1OC(C)=O | 5.59
